*1 amine or outer side, *2 acyl side, *3 side chain or, on linkers, in order; H or OH if unused. Where a SMILES comes first, the peptide text is derived from it. Bridges are numbered along the chain shown (N, C = ends). [ ]: non-standard residue; d: D form. ξ: configuration not given here. Trp(1-CH2COOH) = N[C@@H](Cc1cn(CC(=O)O)c2ccccc12)C(=O)O; Phe(3,4,5-F3) = N[C@@H](Cc1cc(F)c(F)c(F)c1)C(=O)O; Trp(1-Me) = Cn1cc(C[C@H](N)C(=O)O)c2ccccc21; NMePhe(4-F) = CN[C@@H](Cc1ccc(F)cc1)C(=O)O; d(cisHyp) = O=C(O)[C@H]1C[C@@H](O)CN1; Bta = N[C@@H](Cc1csc2ccccc12)C(=O)O; Hyp = O=C(O)[C@@H]1C[C@@H](O)CN1; NMeF = CN[C@@H](Cc1ccccc1)C(=O)O; X1 = O=C([C@H]1COCCN1[*:1])[*:2]; hPhe = N[C@@H](CCc1ccccc1)C(=O)O; NMeNle = CCCC[C@H](NC)C(=O)O; Pip = O=C(O)[C@@H]1CCCCN1; dPip = O=C(O)[C@H]1CCCCN1; hSer = N[C@@H](CCO)C(=O)O; NMeA = CN[C@@H](C)C(=O)O; Dab = NCC[C@H](N)C(=O)O; Dap = NC[C@H](N)C(=O)O; ξC = NC(CS)C(=O)O; Sar = CNCC(=O)O

For one assay, the target named is T1, Human PD-L1/PD-1 (Homo sapiens, UniProt Q9NZQ7).
T1 construct: TVMV protease cleavage site (C); made in house; host or cells: HEK293T cells
T1 sequence (Q9NZQ7 with tags, fused parts or gaps): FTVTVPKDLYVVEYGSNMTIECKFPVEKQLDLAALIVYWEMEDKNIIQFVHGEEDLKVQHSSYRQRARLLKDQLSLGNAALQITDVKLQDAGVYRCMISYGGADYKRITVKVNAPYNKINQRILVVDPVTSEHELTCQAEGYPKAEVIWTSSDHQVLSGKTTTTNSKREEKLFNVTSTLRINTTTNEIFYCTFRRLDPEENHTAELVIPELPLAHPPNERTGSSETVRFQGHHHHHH
Description: HTRF Human PD-L1/PD-1 binding assay (PD-1-Ig/PD-L1-His). The settings on record: PD-L1-His 10 nM, PD-1-Ig 20 nM; class symbol; read-out: HTRF Human PD-L1/PD-1 Binding Assay IC50 Range. A digest of the protocol: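 Compound preincubated 15 min with PD-L1-His (10 nM final), then PD-1-Ig (20 nM final) added for 15 min in dPBS with 0.1% BSA and 0.05% Tween-20. Detection by Eu-cryptate anti-Ig (1 nM) and APC anti-His (20 nM) after 30 min; 665/620 nm HTRF ratio. Proteins expressed in HEK293T.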
Background: In TR-FRET formats the signal depends on donor and acceptor labels being close together.
Regarding `CCCC[C@H]1C(=O)N(C)[C@@H](CCCC)C(=O)N[C@@H](CCC(=O)O)C(=O)N[C@H](C(=O)NCC(N)=O)CSCC(=O)N[C@@H](Cc2ccc(O)cc2)C(=O)N2CCCC[C@@H]2C(=O)N[C@@H](CC(N)=O)C(=O)N2CCC[C@H]2C(=O)N[C@@H](CN)C(=O)N[C@@H](CCC(=O)O)C(=O)N2C[C@H](O)C[C@H]2C(=O)N[C@@H](Cc2c[nH]c3ccccc23)C(=O)N[C@@H](CO)C(=O)N[C@@H](Cc2cn(CC(=O)O)c3ccccc23)C(=O)N1C` [Example 1290] ({CH2CO}-Y[dPip]NP[Dap]E[Hyp]WS[Trp(1-CH2COOH)][NMeNle][NMeNle]ECG-NH2; thioether N-14), the IC50 lay within 10 to 99.9 nM. For `CCCC[C@H]1C(=O)N2CCC[C@@H]2C(=O)N[C@@H](CC(=O)O)C(=O)N[C@@H](C(C)C)C(=O)N(C)[C@@H](Cc2ccccc2)C(=O)N[C@@H](Cc2ccc(O)cc2)C(=O)N2C[C@H](O)C[C@@H]2C(=O)N[C@@H](Cc2c[nH]c3ccccc23)C(=O)N[C@@H](Cc2ccc(O)cc2)C(=O)N[C@@H](CCOC)C(=O)N[C@H](C(=O)NCC(N)=O)CSCC(=O)N[C@@H](Cc2cc(F)c(F)c(F)c2)C(=O)N(C)[C@@H](Cc2ccccc2)C(=O)N1C` [Example 10181] ({CH2CO}-[Phe(3,4,5-F3)][NMeF][NMeNle][dP]DV[NMeF]Y[d(cisHyp)]WY[hSer](Me)CG-NH2; thioether N-13), the IC50 is 1 to 9.9 nM. In the case of `CCCC[C@H]1C(=O)N(C)[C@@H](CCCC)C(=O)N[C@@H](CO)C(=O)N[C@H](C(=O)NCC(N)=O)CSCC(=O)N[C@@H](Cc2ccc(OC)cc2)C(=O)N(C)[C@@H](C)C(=O)N[C@@H](CC(N)=O)C(=O)N2CCC[C@H]2C(=O)N[C@@H](CO)C(=O)N[C@@H](CCC(N)=O)C(=O)N2C[C@H](O)C[C@H]2C(=O)N[C@@H](Cc2c[nH]c3ccccc23)C(=O)N[C@@H](CO)C(=O)N[C@@H](Cc2cn(CC(=O)O)c3ccccc23)C(=O)N1C` [Example 7144] ({CH2CO}-Y(Me)[NMeA]NPSQ[Hyp]WS[Trp(1-CH2COOH)][NMeNle][NMeNle]SCG-NH2; thioether N-14), the IC50 lay in the range of 1 to 9.9 nM. In the case of `CCCC[C@H]1C(=O)N(C)[C@@H](CCCC)C(=O)N[C@@H](CN)C(=O)N[C@H](C(=O)NCC(N)=O)CSCC(=O)N[C@@H](Cc2ccc(O)cc2)C(=O)N2CCCC[C@H]2C(=O)N[C@@H](CC(N)=O)C(=O)N2CCC[C@H]2C(=O)N[C@@H](CN)C(=O)N[C@@H](CCC(=O)O)C(=O)N2C[C@H](O)C[C@H]2C(=O)N[C@@H](Cc2c[nH]c3ccccc23)C(=O)N[C@@H](CO)C(=O)N[C@@H](Cc2cn(CC(=O)O)c3ccccc23)C(=O)N1C` [Example 1300] ({CH2CO}-Y[Pip]NP[Dap]E[Hyp]WS[Trp(1-CH2COOH)][NMeNle][NMeNle][Dap]CG-NH2; thioether N-14), the IC50 lay within 1 to 9.9 nM. As to `CCCC[C@H]1C(=O)N2CCC[C@@H]2C(=O)N[C@@H](CC(=O)O)C(=O)N[C@@H](C(C)C)C(=O)N(C)[C@@H](Cc2ccccc2)C(=O)N[C@@H](CC(=O)O)C(=O)N2CCCC[C@@H]2C(=O)N[C@@H](Cc2c[nH]c3ccccc23)C(=O)N[C@@H](Cc2ccc(O)cc2)C(=O)N[C@@H](CN)C(=O)N[C@H](C(=O)NCC(N)=O)CSCC(=O)N[C@@H](Cc2cc(F)c(F)c(F)c2)C(=O)N(C)[C@@H](Cc2ccc(F)cc2)C(=O)N1C` [Example 10572] ({CH2CO}-[Phe(3,4,5-F3)][NMePhe(4-F)][NMeNle][dP]DV[NMeF]D[dPip]WY[Dap]CG-NH2; thioether N-13), the IC50 lay in the range of 1 to 9.9 nM. Same read-out and setting: next, `CCCC[C@H]1C(=O)N2CCOC[C@@H]2C(=O)N[C@@H](CC(=O)O)C(=O)N[C@@H](C(C)C)C(=O)N(C)[C@@H](Cc2ccccc2)C(=O)N[C@@H](Cc2ccc(O)cc2)C(=O)N2CCC[C@@H]2C(=O)N[C@@H](Cc2c[nH]c3ccccc23)C(=O)N[C@@H](Cc2ccc(O)cc2)C(=O)N[C@@H](CCOC)C(=O)N[C@H](C(=O)NCC(N)=O)CSCC(=O)N[C@@H](Cc2cc(F)c(F)c(F)c2)C(=O)N(C)[C@@H](Cc2ccccc2)C(=O)N1C` [Example 10185] ({CH2CO}-[Phe(3,4,5-F3)][NMeF][NMeNle][X1]DV[NMeF]Y[dP]WY[hSer](Me)CG-NH2; thioether N-13): 1 to 9.9 nM; `CCCC[C@H]1C(=O)N(C)[C@@H](CCCC)C(=O)N[C@@H](C)C(=O)N[C@H](C(=O)NCC(N)=O)CSCC(=O)N[C@@H](Cc2ccc(O)cc2)C(=O)N(C)[C@@H](C)C(=O)N[C@@H](CC(=O)O)C(=O)N2CCC[C@H]2C(=O)N[C@@H](Cc2c[nH]cn2)C(=O)N[C@@H](CCC(N)=O)C(=O)N2C[C@H](O)C[C@H]2C(=O)N[C@@H](Cc2c[nH]c3ccccc23)C(=O)N[C@@H](CO)C(=O)N[C@@H](Cc2cn(C)c3ccccc23)C(=O)N1C` [Example 1501] ({CH2CO}-Y[NMeA]DPHQ[Hyp]WS[Trp(1-Me)][NMeNle][NMeNle]ACG-NH2; thioether N-14): 10 to 99.9 nM; `CCCC[C@H]1C(=O)N(C)[C@@H](CCCC)C(=O)N[C@@H](CCC(=O)O)C(=O)N[C@H](C(=O)NCC(N)=O)CSCC(=O)N[C@@H](Cc2ccc(O)cc2)C(=O)N2CCCC[C@H]2C(=O)N[C@@H](CC(N)=O)C(=O)N2CCC[C@H]2C(=O)N[C@@H](CN)C(=O)N[C@@H](CCC(=O)O)C(=O)N2C[C@H](O)C[C@H]2C(=O)N[C@@H](Cc2c[nH]c3ccccc23)C(=O)N[C@@H](CCN)C(=O)N[C@@H](Cc2c[nH]c3ccccc23)C(=O)N1C` [Example 1526] ({CH2CO}-Y[Pip]NP[Dap]E[Hyp]W[Dab]W[NMeNle][NMeNle]ECG-NH2; thioether N-14): 1 to 9.9 nM. Same read-out and setting: next, `CCCC[C@H]1C(=O)N(C)[C@@H](CCCC)C(=O)N[C@@H](CCC(=O)O)C(=O)N[C@H](C(=O)NCC(N)=O)CSCC(=O)N[C@@H](Cc2ccc(OC)cc2)C(=O)N(C)[C@@H](C)C(=O)N[C@@H](CC(N)=O)C(=O)N2CCC[C@H]2C(=O)N[C@@H](CN)C(=O)N[C@@H](CCCCN)C(=O)N2C[C@H](O)C[C@H]2C(=O)N[C@@H](Cc2c[nH]c3ccccc23)C(=O)N[C@@H](CCN)C(=O)N[C@@H](Cc2c[nH]c3ccccc23)C(=O)N1C` [Example 7121] ({CH2CO}-Y(Me)[NMeA]NP[Dap]K[Hyp]W[Dab]W[NMeNle][NMeNle]ECG-NH2; thioether N-14): 1 to 9.9 nM; `CCCC[C@H]1C(=O)N2CCC[C@@H]2C(=O)N[C@@H](CC(=O)O)C(=O)N[C@@H](C(C)C)C(=O)N(C)[C@@H](Cc2ccccc2)C(=O)N[C@@H](CC(=O)O)C(=O)N2CCCC[C@@H]2C(=O)N[C@@H](Cc2c[nH]c3ccccc23)C(=O)N[C@@H](Cc2ccc(O)cc2)C(=O)N[C@@H](CO)C(=O)N[C@H](C(=O)NCC(N)=O)CSCC(=O)N[C@@H](Cc2cc(F)c(F)c(F)c2)C(=O)N(C)[C@@H](Cc2ccc(F)cc2)C(=O)N1C` [Example 10573] ({CH2CO}-[Phe(3,4,5-F3)][NMePhe(4-F)][NMeNle][dP]DV[NMeF]D[dPip]WYSCG-NH2; thioether N-13): 1 to 9.9 nM; `CCCC[C@H]1C(=O)N(C)[C@@H](CCCC)C(=O)N[C@@H](CCC(=O)O)C(=O)N[C@H](C(=O)NCC(N)=O)CSCC(=O)N[C@@H](Cc2ccc(O)cc2)C(=O)N(C)[C@@H](C)C(=O)N[C@@H](CC(N)=O)C(=O)N2CCC[C@H]2C(=O)N[C@@H](CO)C(=O)N[C@@H](CC(C)C)C(=O)N2C[C@H](O)C[C@H]2C(=O)N[C@@H](Cc2c[nH]c3ccccc23)C(=O)N[C@@H](CCN)C(=O)N[C@@H](Cc2c[nH]c3ccccc23)C(=O)N1C` [Example 5247] ({CH2CO}-Y[NMeA]NPSL[Hyp]W[Dab]W[NMeNle][NMeNle]ECG-NH2; thioether N-14): 1 to 9.9 nM.

Regarding `CCCC[C@H]1C(=O)N(C)[C@@H](C)C(=O)N[C@@H](CCCNC(=N)N)C(=O)NC(C(=O)NCC(N)=O)CSCC(=O)N[C@@H](Cc2ccc(O)cc2)C(=O)N(C)[C@@H](C)C(=O)N[C@@H](CC(N)=O)C(=O)N2CCC[C@H]2C(=O)N[C@@H](Cc2cnc[nH]2)C(=O)N[C@H](CO)C(=O)N2C[C@H](O)C[C@H]2C(=O)N[C@@H](Cc2c[nH]c3ccccc23)C(=O)N[C@@H](CO)C(=O)N[C@@H](Cc2c[nH]c3ccccc23)C(=O)N1C` (stereo partly drawn) [Example 9119] ({CH2CO}-Y[NMeA]NPH[dS][Hyp]WSW[NMeNle][NMeA]R[ξC]G-NH2; thioether N-14), the IC50 fell in the range of 10 to 99.9 nM. In the case of `CCCC[C@H]1C(=O)N(C)[C@@H](CCCC)C(=O)N[C@@H](CC(C)C)C(=O)N[C@H](C(=O)NCC(N)=O)CSCC(=O)N[C@@H](Cc2ccc(O)cc2)C(=O)N(C)[C@@H](C)C(=O)N[C@@H](CCN)C(=O)N2CCC[C@H]2C(=O)N[C@@H](Cc2c[nH]cn2)C(=O)N[C@@H](CCCCN)C(=O)N2C[C@H](O)C[C@H]2C(=O)N[C@@H](Cc2c[nH]c3ccccc23)C(=O)N[C@@H](CCCCN)C(=O)N[C@@H](Cc2c[nH]c3ccccc23)C(=O)N1C` [Example 5201] ({CH2CO}-Y[NMeA][Dab]PHK[Hyp]WKW[NMeNle][NMeNle]LCG-NH2; thioether N-14), the IC50 lay in the range of 1 to 9.9 nM.

For the molecule `CCCC[C@H]1C(=O)N(C)[C@@H](CCCC)C(=O)N[C@@H](CCCNC(=N)N)C(=O)NC(C(=O)NCC(N)=O)CSCC(=O)N[C@@H](Cc2ccc(O)cc2)C(=O)N(C)[C@@H](C)C(=O)N[C@@H](CC(N)=O)C(=O)N2CCC[C@H]2C(=O)N[C@@H](CO)C(=O)N[C@@H](CCO)C(=O)N2C[C@H](O)C[C@H]2C(=O)N[C@@H](Cc2c[nH]c3ccccc23)C(=O)N[C@@H](CO)C(=O)N[C@@H](Cc2csc3ccccc23)C(=O)N1C` (stereo partly drawn) [Example 10035] ({CH2CO}-Y[NMeA]NPS[hSer][Hyp]WS[Bta][NMeNle][NMeNle]R[ξC]G-NH2; thioether N-14), the IC50 lay in the range of 1 to 9.9 nM.

The assay is the same for the next values; noted with them: PD-L1-His 10 nM, PD-1-Ig 20 nM; read-out: HTRF Human PD-L1/PD-1 Binding Assay IC50.
With `CCCC[C@H]1C(=O)N(C)CC(=O)N[C@@H](CC(=O)O)C(=O)N[C@@H](CCc2ccccc2)C(=O)N(C)[C@@H](Cc2ccccc2)C(=O)N[C@@H](Cc2ccc(O)cc2)C(=O)N(C)CC(=O)N[C@@H](Cc2c[nH]c3ccccc23)C(=O)N[C@@H](Cc2ccc(O)cc2)C(=O)N[C@@H](CC(C)C)C(=O)N[C@H](C(=O)NCC(N)=O)CSCC(=O)N[C@@H](Cc2ccccc2)C(=O)N(C)[C@@H](Cc2ccccc2)C(=O)N1C` [Example 3226] ({CH2CO}-F[NMeF][NMeNle][Sar]D[hPhe][NMeF]Y[Sar]WYLCG-NH2; thioether N-13), the IC50 was found to be 1860 nM.

These data come from US10538555B2, “Macrocyclic inhibitors of the PD-1/PD-L1 and CD80(B7-1)/PD-L1 protein/protein interactions” (BRISTOL-MYERS SQUIBB COMPANY, priority 2014, dated 2020).
